≈ marks a conversion by molar mass, not a printed value. Like-named read-outs stand apart in the source and are kept apart here.
Experiments:
Assay type in all cases: cell-based
[1] = test system: A431 (ovarian cancer) cell line; assay: Anti-cancer activity in vitro, A431 cell line; conditions: A431 Cell Line
Description: (§1) The anti-cancer activity and toxicity of the compound according to the present invention were evaluated in vitro using A549 (lung cancer), SUN638 (gastric cancer), HCT116 (rectal cancer), and A431 (ovarian cancer) cell lines. The above four (4) cell lines were purchased from Cancer Research Institute, Seoul National University College of Medicine. […] The experiment was basically carried out according to the process described in Monks, A., et al, Journal of National Cancer Institute. 83: 757-766 (1991) and the results are represented in the following Tables 2 and 3.

[2] = test system: A549 (lung cancer) cell line; assay: Anti-cancer activity in vitro, A549 cell line
Description: as §1

[3] = test system: SUN638 (gastric cancer) cell line; assay: Anti-cancer activity in vitro, SUN638 cell line
Description: as §1

[4] = test system: HCT116 (rectal cancer) cell line; assay: Anti-cancer activity in vitro, HCT116 cell line
Description: as §1

[5] = Homo sapiens, A549, read-out: LC50
[6] = Homo sapiens, A549 Cell Line, read-out: GI50
[7] = SUN638 Cell Line, read-out: GI50
[8] = Homo sapiens, HCT-116, read-out: LC50

Row | Structure (SMILES) | GI50 [1] [µg/mL] | TGI50 [1] [µg/mL] | GI50 ([2]; A549 Cell Line) [µg/mL] | TGI50 ([2]; A549 Cell Line) [µg/mL] | GI50 ([3]; SUN638 Cell Line) [µg/mL] | TGI50 ([3]; SUN638 Cell Line) [µg/mL] | GI50 ([4]; HCT116 Cell Line) [µg/mL] | TGI50 ([4]; HCT116 Cell Line) [µg/mL] | LC50 ([2]; A549 Cell Line) [µg/mL] | LC50 ([3]; SUN638 Cell Line) [µg/mL] | LC50 [1] [µg/mL] | LC50 ([4]; HCT116 Cell Line) [µg/mL] | LC50 [2, 5] [µg/mL] | GI50 [2, 6] [µg/mL] | GI50 [3, 7] [µg/mL] | LC50 ([3]; read-out: LC50) [µg/mL] | GI50 ([2]; Homo sapiens, A549) [µg/mL] | GI50 [3] [µg/mL] | GI50 ([4]; Homo sapiens, HCT-116) [µg/mL] | LC50 [4, 8] [µg/mL]
1 | N.N.[Cl][Pt][Cl] [Cisplatin, cisplatin, reference compound] | 3.2 | 28.7 | 3.8 | 47.3 | 1.7 | 13.3 | 2.9 | 32.77 |  |  |  |  |  |  |  |  |  |  |  | 
2 | COc1cc2c(cc1OC)C(c1ccccc1)CN(C(=O)Nc1cc(C)c(C)nc1OC)CC2 (centres unmarked) [Compound 1, 3-[N-(5,6-dimethyl-2-methoxypyridin-3-yl)aminocarbonyl]-7,8-dimethoxy-1-phenyl-2,3,4,5-tetrahydro-3H-benzazepine] |  |  | 1.21 (≈ 2.62 µM) | 39.81 | 1.99 (≈ 4.31 µM) | 7.07 |  |  | >100 | >100 |  |  |  |  |  |  |  |  |  | 
3 | COc1cc2c(cc1OC)[C@H](c1ccccc1)CN(C(=O)Nc1nc3ccccc3nc1OC)CC2 [Compound 3, 3-[N-(2-methoxyquinoxalin-3-yl)aminocarbonyl]-(S)-7,8-dimethoxy-1-phenyl-2,3,4,5-tetrahydro-3H-benzazepine] | 2.04 (≈ 4.21 µM) | 26.30 | 1.31 (≈ 2.7 µM) | 5.62 | 1.47 (≈ 3.03 µM) | 9.33 | 1.31 (≈ 2.7 µM) | 5.62 | >100 | >100 | >100 | >100 |  |  |  |  |  |  |  | 
4 | COc1cc2c(cc1OC)[C@@H](c1ccccc1)CN(C(=O)Nc1nc3ccccc3nc1OC)CC2 [Compound 4, 3-[N-(2-methoxyquinoxalin-3-yl)aminocarbonyl]-(R)-7,8-dimethoxy-1-phenyl-2,3,4,5-tetrahydro-3H-benzazepine] |  |  | 1.20 (≈ 2.48 µM) | 100 | 1.86 (≈ 3.84 µM) | 6.76 | 0.12 (≈ 0.248 µM) | 3.54 | >100 | >100 |  | >100 |  |  |  |  |  |  |  | 
5 | COc1cc2c(cc1OC)C(c1ccc(F)cc1)CN(C(=O)Nc1nc3ccccc3nc1OC)CC2 (centres unmarked) [Compound 5, 3-[N-(2-methoxyquinoxalin-3-yl)aminocarbonyl]-7,8-dimethoxy-1-(4-fluoro)phenyl-2,3,4,5-tetrahydro-3H-benzazepine] |  |  | 2.08 (≈ 4.14 µM) | 46.98 | 1.69 (≈ 3.36 µM) | 6.16 | 0.15 (≈ 0.298 µM) | 4.07 | >100 | >100 |  | >100 |  |  |  |  |  |  |  | 
6 | COc1cc2c(cc1OC)C(c1ccc(Cl)cc1)CN(C(=O)Nc1nc3ccccc3nc1OC)CC2 (centres unmarked) [Compound 6, 3-[N-(2-methoxyquinoxalin-3-yl)aminocarbonyl]-7,8-dimethoxy-1-(4-chloro)phenyl-2,3,4,5-tetrahydro-3H-benzazepine] |  |  | 2.69 (≈ 5.18 µM) | 100 | 1.90 (≈ 3.66 µM) | 6.91 | 0.39 (≈ 0.751 µM) | 3.31 | >100 | >100 |  | >100 |  |  |  |  |  |  |  | 
7 | CCOc1nc2ccccc2nc1NC(=O)N1CCc2cc(OC)c(OC)cc2C(c2ccccc2)C1 (centres unmarked) [Compound 7, 3-[N-(2-ethoxyquinoxalin-3-yl)aminocarbonyl]-7,8-dimethoxy-1-phenyl-2,3,4,5-tetrahydro-3H-benzazepine] |  |  | 3.38 (≈ 6.78 µM) | 100 | 2.45 (≈ 4.91 µM) | 7.41 | 0.15 (≈ 0.301 µM) | 4.08 | >100 | >100 |  | >100 |  |  |  |  |  |  |  | 
8 | COc1nc2ccccc2nc1NC(=O)N1CCC(c2ccccc2)(c2ccccc2)CC1 [Compound 16, 1-[N-(2-methoxyquinoxalin-3-yl)aminocarbonyl]-4,4-diphenyl-piperidine] |  |  |  |  |  |  |  |  |  |  |  |  | > 100 | 1.02 (≈ 2.33 µM) | 0.15 (≈ 0.342 µM) | > 100 |  |  |  | 
9 | O=C(NC(c1ccccc1)c1ccccc1)N1CCC(c2ccccc2)(c2ccccc2)CC1 [Compound 17, 1-[N-(diphenylmethyl)aminocarbonyl]-4,4-diphenyl-piperidine] |  |  |  |  |  |  |  |  |  |  |  |  | > 100 | 6.45 (≈ 14.4 µM) | 0.63 (≈ 1.41 µM) | > 100 |  |  |  | 
10 | COc1ccc(C#N)cc1NC(=O)N1CCN(c2cc(C)cc(C)c2)CC1 [Compound 26, 1-[(2-methoxy-5-cyanophenyl)aminocarbonyl]-4-(3,5-dimethylphenyl)piperazine] |  |  |  |  |  |  |  |  |  |  |  |  | > 100 | 1.36 (≈ 3.73 µM) | 2.51 (≈ 6.89 µM) | > 100 |  |  |  | 
11 | Cc1cc(C)cc(N2CCN(C(=O)Nc3nc4ccccc4[n+]([O-])n3)CC2)c1 [Compound 28, 1-[(benzo-1,2,4-triazin-1-N-oxide-3-yl)aminocarbonyl]-4-(3,5-dimethylphenyl)piperazine] |  |  | 1.31 (≈ 3.46 µM) | 34.67 | 1.99 (≈ 5.26 µM) | 7.07 |  |  | >100 | >100 |  |  |  |  |  |  |  |  |  | 
12 | C=CCN(CC=C)c1nc(N(CC=C)CC=C)nc(N2CCN(C(=O)Nc3nc4ccccc4nc3OC)CC2)n1 [Compound 53] |  |  | 2.75 (≈ 4.94 µM) | 8.91 | 2.18 (≈ 3.92 µM) | 5.49 |  |  | >100 | >100 |  |  |  |  |  |  |  |  |  | 
13 | COc1cc(OC)cc(N2CCN(C(=O)n3ccnc3)CC2)c1 [Compound 58, 1-[(1H-imidazol-1-yl)carbonyl]-4-(3,5-dimethoxyphenyl) piperazine] |  |  |  |  |  |  |  |  |  |  |  |  | > 100 |  |  | > 100 | 2.75 (≈ 8.69 µM) | 2.39 (≈ 7.55 µM) | 0.66 (≈ 2.09 µM) | > 100
14 | C=C(C)CN(CC)c1nc(N2CCN(C(=O)n3ccnc3)CC2)nc(N(CC)CC(=C)C)n1 [Compound 63, 1-[(1H-imidazol-1-yl)carbonyl]-4-{4,6-bis-[ethyl-(2-methylallyl)amino]-[1,3,5]triazin-2-yl}piperazine] |  |  |  |  |  |  |  |  |  |  |  |  | > 100 |  |  | > 100 | 2.23 (≈ 4.92 µM) | 1.81 (≈ 3.99 µM) | 1.77 (≈ 3.9 µM) | > 100
15 | COc1cc2c(cc1OC)[C@@H](c1ccccc1)CN(C(=O)n1ccnc1)CC2 [Compound 68, 3-[(1H-imidazol-1-yl)carbonyl]-(R)-7,8-dimethoxy-1-phenyl-2,3,4,5-tetrahydro-3H-benzazepine] |  |  | 0.23 (≈ 0.609 µM) | 100 | 0.22 (≈ 0.583 µM) | 97.72 | 0.24 (≈ 0.636 µM) | 10.96 | >100 | >100 |  | >100 |  |  |  |  |  |  |  | 
16 | COc1cc2c(cc1OC)[C@H](c1ccccc1)CN(C(=O)n1ccnc1)CC2 [Compound 69, 3-[(1H-imidazol-1-yl)carbonyl]-(S)-7,8-dimethoxy-1-phenyl-2,3,4,5-tetrahydro-3H-benzazepine] |  |  | 0.36 (≈ 0.954 µM) | 97.72 | 0.13 (≈ 0.344 µM) | 3.63 | 0.13 (≈ 0.344 µM) | 10.71 | >100 | >100 |  | >100 |  |  |  |  |  |  |  | 
17 | COc1cc2c(cc1OC)C(c1ccc(Cl)cc1)CN(C(=O)n1ccnc1)CC2 (centres unmarked) [Compound 71, 3-[(1H-imidazol-1-yl)carbonyl]-7,8-dimethoxy-1-(4-chloro)phenyl-2,3,4,5-tetrahydro-3H-benzazepine] |  |  | 4.78 (≈ 11.6 µM) | 93.32 | 2.63 (≈ 6.39 µM) | 9.12 | 2.69 (≈ 6.53 µM) | 14.12 | >100 | >100 |  | >100 |  |  |  |  |  |  |  | 
18 | COc1ccc2c(c1)C(c1ccccc1)CN(C(=O)n1ccnc1)CC2 (centres unmarked) [Compound 72, 3-[(1H-imidazol-1-yl)carbonyl]-8-methoxy-1-phenyl-2,3,4,5-tetrahydro-3H-benzazepine] |  |  | 2.23 (≈ 6.42 µM) | 100 | 1.44 (≈ 4.14 µM) | 7.24 | 0.10 (≈ 0.288 µM) | 9.42 | >100 | >100 |  | >100 |  |  |  |  |  |  |  | 
19 | COc1ccc2c(c1)C(c1ccc(Cl)cc1)CN(C(=O)n1ccnc1)CC2 (centres unmarked) [Compound 74, 3-[(1H-imidazol-1-yl)carbonyl]-8-methoxy-1-(4-chloro)phenyl-2,3,4,5-tetrahydro-3H-benzazepine] |  |  |  |  |  |  | 1.44 (≈ 3.77 µM) | 7.24 |  |  |  | >100 |  |  |  |  |  |  |  | 
20 | O=C(N1CCC(c2ccccc2)(c2ccccc2)CC1)n1ccnc1 [Compound 80, 1-[(1H-imidazol-1-yl)carbonyl]-4,4-diphenyl-piperidine] |  |  |  |  |  |  |  |  |  |  |  |  | > 100 |  |  | > 100 | 1.38 (≈ 4.16 µM) | 1.62 (≈ 4.89 µM) | 1.47 (≈ 4.44 µM) | > 100

Source: patent US20020019389A1, “Urea derivative useful as an anti-cancer agent and process for preparing same” (priority 2000, published 2002)
